By IC50 is commonly meant the concentration needed to halve the response being measured.

We go through 34 compounds from patent US8895585B2, “Nicotinamide derivative or salt thereof” (FUJIFILM Corporation, priority 2010, dated 2014).

The structures appear in SMILES notation.

The first test has as its target T1, glutathione S-transferase (GST)-fused full-length human Syk protein (Homo sapiens, UniProt P43405).
T1 construct: (GST)-fused full-length human Syk protein; GST (glutathione S-transferase); purchased Carna Biosciences
Briefly: Syk enzyme assay. The conditions noted are these: Syk enzyme assay, Test Example 1; read-out: IC50 of Syk-inhibitory activity. In kind it is biochemical. The method in brief: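 IC50 values come from a time-resolved FRET readout (615 and 665 nm) of substrate phosphorylation, measured after an EDTA stop and 1 h antibody binding. The kinase reaction ran 40 min at room temperature with 27 μM ATP and 0.4 μM biotin-peptide, following a 15 min compound preincubation with baculovirus-made GST-full-length human Syk.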
With `Cn1nc(N2CCOCC2)c2cc(Nc3nc(N[C@@H]4CCCC[C@@H]4N)c(F)cc3C(N)=O)ccc21` [Example 006-560, 6-(((1R,2S)-2-aminocyclohexyl)amino)-5-fluoro-2-((1-methyl-3-morpholino-1H-indazol-5-yl)amino)nicotinamide], the IC50 lay within 10 to 50 nM.

Consider `C[C@H](N)[C@@H](CC1CC1)Nc1nc(Nc2ccc3c(c2)c(N2CCOCC2)nn3C)c(C(N)=O)cc1F` [Example 006-561, 6-(((2R,3S)-3-amino-1-cyclopropylbutan-2-yl)amino)-5-fluoro-2-((1-methyl-3-morpholino-1H-indazol-5-yl)amino)nicotinamide], for which the IC50 was less than 10 nM. The same measure, in the same setting: then `CC(C)C[C@@H](Nc1nc(Nc2ccc3c(c2)c(N2CCOCC2)nn3C)c(C(N)=O)cc1F)[C@H](C)N` [Example 006-562, 6-(((2S,3R)-2-amino-5-methylhexan-3-yl)amino)-5-fluoro-2-((1-methyl-3-morpholino-1H-indazol-5-yl)amino)nicotinamide], with less than 10 nM; and `COCCOc1ncc(Nc2nc(N[C@@H]3CCCC[C@@H]3N)c(F)cc2C(N)=O)cc1N1CCOCC1` [Example 006-566, 6-(((1R,2S)-2-aminocyclohexyl)amino)-5-fluoro-2-((6-(2-methoxyethoxy)-5-morpholinopyridin-3-yl)amino)nicotinamide], with 100 to 1000 nM; and `Cc1ncc(Nc2nc(N[C@@H]3CCCC[C@@H]3N)c(F)cc2C(N)=O)cc1Cl` [Example 006-567, 6-(((1R,2S)-2-aminocyclohexyl)amino)-2-((5-chloro-6-methylpyridin-3-yl)amino)-5-fluoronicotinamide], with 10 to 50 nM. On to `CCc1ncc(Nc2nc(N[C@@H]3CCCC[C@@H]3N)c(F)cc2C(N)=O)cc1Cl` [Example 006-568, 6-(((1R,2S)-2-aminocyclohexyl)amino)-2-((5-chloro-6-ethylpyridin-3-yl)amino)-5-fluoronicotinamide], for which the IC50 is 50 to 100 nM. On the same count and under the same terms, as for `NC(=O)c1cc(F)c(N[C@@H]2CCCC[C@@H]2N)nc1Nc1cnc(C2CC2)c(Cl)c1` [Example 006-569, 6-(((1R,2S)-2-aminocyclohexyl)amino)-2-((5-chloro-6-cyclopropylpyridin-3-yl)amino)-5-fluoronicotinamide], the figure is 10 to 50 nM; as for `CCOc1ncc(Nc2nc(N[C@@H]3CCCC[C@@H]3N)c(F)cc2C(N)=O)cc1Cl` [Example 006-570, 6-(((1R,2S)-2-aminocyclohexyl)amino)-2-((5-chloro-6-ethoxypyridin-3-yl)amino)-5-fluoronicotinamide], 10 to 50 nM. Same read-out and setting: as for `COCCOc1ncc(Nc2nc(N[C@@H]3CCCC[C@@H]3N)c(F)cc2C(N)=O)cc1Cl` [Example 006-571, 6-(((1R,2S)-2-aminocyclohexyl)amino)-2-((5-chloro-6-(2-methoxyethoxy)pyridin-3-yl)amino)-5-fluoronicotinamide], the figure is 50 to 100 nM. Same read-out and setting: as for `CCOc1ncc(Nc2nc(N[C@@H]3CCCC[C@@H]3N)c(F)cc2C(N)=O)cc1C1CC1` [Example 006-573, 6-(((1R,2S)-2-aminocyclohexyl)amino)-2-((5-cyclopropyl-6-ethoxypyridin-3-yl)amino)-5-fluoronicotinamide], the figure is 10 to 50 nM. As for `COCCOc1ncc(Nc2nc(N[C@@H]3CCCC[C@@H]3N)c(F)cc2C(N)=O)cc1C1CC1` [Example 006-574, 6-(((1R,2S)-2-aminocyclohexyl)amino)-2-((5-cyclopropyl-6-(2-methoxyethoxy)pyridin-3-yl)amino)-5-fluoronicotinamide], the IC50 lay in the range of 10 to 50 nM.

As for `Cc1nn(C)c2ccc(Nc3nc(N[C@H](C4CC4)[C@H](C)N)c(F)cc3C(N)=O)cc12` [Example 006-582, 6-(((1R,2S)-2-amino-1-cyclopropylpropyl)amino)-2-((1,3-dimethyl-1H-indazol-5-yl)amino)-5-fluoronicotinamide], the IC50 was less than 10 nM.

Take `Cn1nc(-n2cccn2)c2cc(Nc3nc(N[C@@H]4CCCC[C@@H]4N)c(F)cc3C(N)=O)ccc21` [Example 006-594, 6-(((1R,2S)-2-aminocyclohexyl)amino)-5-fluoro-2-((1-methyl-3-(1H-pyrazol-1-yl)-1H-indazol-5-yl)amino)nicotinamide]: the concentration for half-maximal inhibition (IC50) is less than 10 nM. On the same count and under the same terms, then `CC(C)C[C@@H](Nc1nc(Nc2ccc3c(c2)c(-n2cccn2)nn3C)c(C(N)=O)cc1F)[C@H](C)N` [Example 006-595, 6-(((2S,3R)-2-amino-5-methylhexan-3-yl)amino)-5-fluoro-2-((1-methyl-3-(1H-pyrazol-1-yl)-1H-indazol-5-yl)amino)nicotinamide], with less than 10 nM. The same measure, in the same setting: as for `Cc1cc(C)cc(Nc2nc(NCCN)c(F)cc2C(N)=O)c1` [Example 008-002], the figure is 10 to 50 nM; as for `Cc1ccccc1Nc1nc(NCCN)c(F)cc1C(N)=O` [Example 008-003], 100 to 1000 nM; as for `NC(=O)c1cc(F)c(NC2CCCCC2N)nc1Nc1cnc2ccccc2c1` (stereo not shown) [Example 008-004], less than 10 nM. On the same count and under the same terms, as for `NC(=O)c1cc(F)c(NC2CCCCC2N)nc1Nc1cccc(Cl)c1` (stereo not shown) [Example 008-008], the figure is less than 10 nM; as for `NC(=O)c1cc(F)c(NCc2ccc[nH]2)nc1Nc1ccc2ncccc2c1` [Example 012-003], 100 to 1000 nM; as for `NC(=O)c1cc(F)c(N[C@@H](C(N)=O)c2ccccc2)nc1Nc1ccc2ncsc2c1` [Example 012-004], 10 to 50 nM. For the compound `NC(=O)c1cc(F)c(NC(Cc2ccccc2)C(N)=O)nc1Nc1ccc2ncsc2c1` (stereo not shown) [Example 012-006], the half-maximal inhibitory concentration (IC50) is 10 to 50 nM. Same read-out and setting: then `NC(=O)c1cc(F)c(N[C@H](Cc2ccccc2)C(N)=O)nc1Nc1ccc2ncccc2c1` [Example 012-012], with 10 to 50 nM; and `NC(=O)c1cc(F)c(NCCc2cnc[nH]2)nc1Nc1ccc2ncccc2c1` [Example 012-014], with 100 to 1000 nM. Regarding `NC(=O)c1cc(F)c(NCc2cnc[nH]2)nc1Nc1ccc2ncccc2c1` [Example 012-015], the IC50 fell in the range of 50 to 100 nM.

For the compound `NC(=O)c1cc(F)c(NCc2ccccn2)nc1Nc1ccc2ncccc2c1` [Example 012-016], the IC50 is 100 to 1000 nM. On the same count and under the same terms, then `NC(=O)c1cc(F)c(NCc2cccnc2)nc1Nc1ccc2ncccc2c1` [Example 012-017], with 100 to 1000 nM; and `NC(=O)c1cc(F)c(NCc2ccncc2)nc1Nc1ccc2ncccc2c1` [Example 012-018], with 100 to 1000 nM. Same read-out and setting: then `NC(=O)CNc1nc(Nc2ccc3ncccc3c2)c(C(N)=O)cc1F` [Example 012-019], with 50 to 100 nM; and `NC(=O)c1cc(F)c(NCc2cnc[nH]2)nc1Nc1cnc2ccccc2c1` [Example 012-020], with 100 to 1000 nM; and `NC(=O)c1cc(F)c(NCCO)nc1Nc1ccc2ncccc2c1` [Example 012-021], with less than 10 nM. The same measure, in the same setting: as for `CNc1nc(Nc2ccc3ncccc3c2)c(C(N)=O)cc1F` [Example 012-022], the figure is 100 to 1000 nM; as for `NC(=O)c1cc(F)c(N[C@@H](CO)Cc2ccccc2)nc1Nc1ccc2ncccc2c1` [Example 012-023], 100 to 1000 nM; as for `NC(=O)c1cc(F)c(N[C@@H](CO)c2ccccc2)nc1Nc1ccc2ncccc2c1` [Example 012-024], 100 to 1000 nM.

Staying with this test, now noted: read-out: Syk-inhibitory activity (IC50).
For the compound `Cc1cc(C)cc(Nc2nc(NCCN)c(F)cc2C(N)=O)c1` [Example 8-2, 6-((2-aminoethyl)amino)-2-((3,5-dimethylphenyl)amino)-5-fluoro-nicotinamide], the IC50 is no more than 1000 nM.
